Measured values from the C3SDB collision cross section collection.
Several values for one entry are separate records, joined by “and”; a condition that tells them apart may be missing. Equal entries are not always repeated.

Settings: instrument: DT, single field, calibrated with Agilent tune mix (Agilent)

SMILES | collision cross section (N2) ([M+H]+) | collision cross section (N2) ([M+Na]+) | collision cross section (N2) ([M-H]-) | other results
COC1=C(OC)C(=O)C(C/C=C(\C)CCC=C(C)C)=C(C)C1=O [Ubiquinone-2] | 174.3 Å² | – | – | –
CO[C@@H]1[C@H](O)[C@@H](CO)O[C@H]1n1cnc2c(N)ncnc21 [2'-O-methyladenosine] | – | 168.7 Å² | 158.37 Å² | –
OC[C@H]1OC(O)[C@H](O)[C@@H](O)[C@H]1O (stereo partly drawn) [D-(+)-Galactose] | – | 142.1 Å² | – | –
N[C@@H](CCC(=O)N[C@@H](CS)C(=O)O)C(=O)O [Gamma-Glutamylcysteine] | 157.7 Å² | – | – | –
NC(Cc1c[nH]c2ccc(O)cc12)C(=O)O (stereo not drawn) [5-Hydroxytryptophan] | – | 152.2 Å² | 149.2 Å² | –
O=C(O)C(O)C(O)C(=O)O (stereo not drawn) [Tartaric acid] | – | – | 115.46 Å² | –
O=C(O)CCCCCCCCCCCCCCCO [16-Hydroxypalmitic acid] | – | 178.2 Å² | 168.99 Å² | –
O=C1CC[C@@H](C(=O)O)N1 [L-Pyroglutamic acid] | 130.6 Å² | – | – | –
Nc1ccn([C@H]2C[C@H](O)[C@@H](COP(=O)(O)OP(=O)(O)OP(=O)(O)O)O2)c(=O)n1 [dCTP] | 184.9 Å² | – | – | –
CC(=O)[C@@H](O)[C@H](O)COP(=O)(O)O [1-Deoxy-D-xylulose 5-phosphate] | – | 144.9 Å² | 134.48 Å² | –
CC1=C(/C=C/C(C)=C/C=C/C(C)=C/C(=O)O)C(C)(C)CCC1 [All-trans-retinoic acid] | – | – | 203.42 Å² | –
NC(=O)c1ncn([C@@H]2O[C@H](COP(=O)(O)O)[C@@H](O)[C@H]2O)c1N [5'-Phosphoribosyl-5-amino-4-imidazolecarboxamide] | 171.6 Å² | – | 167.62 Å² | –
O=C(O)C(=O)CC1(C(=O)O)C=CC(O)C=C1 (stereo not drawn) [Prephenate] | – | 155 Å² | – | –
Cc1cc2nc3c(=O)[nH]c(=O)nc-3n(C[C@H](O)[C@H](O)[C@H](O)COP(=O)(O)OP(=O)(O)OC[C@H]3O[C@@H](n4cnc5c(N)ncnc54)[C@H](O)[C@@H]3O)c2cc1C [Flavin adenine dinucleotide] | 247.3 Å² | – | – | –
Cn1c(=O)ccn([C@@H]2O[C@H](CO)[C@@H](O)[C@H]2O)c1=O [3-Methyluridine] | – | 164.2 Å² | 166.84 Å² | –
OCC1(O)OC[C@@H](O)[C@H](O)[C@@H]1O (stereo partly drawn) [D-Tagatose] | – | 139 Å² | 129.77 Å² | –

SMILES | collision cross section (N2) ([M+H]+) | collision cross section (N2) ([M+Na]+) | collision cross section (N2) ([M-H]-) | other results
CC(=O)N[C@H]1[C@H]([C@H](O)[C@H](O)CO)O[C@](OP(=O)(O)OC[C@H]2O[C@@H](n3ccc(N)nc3=O)[C@H](O)[C@@H]2O)(C(=O)O)C[C@@H]1O [Cytidine monophosphate N-acetylneuraminic acid] | – | 220.7 Å² | 215.5 Å² | –
CCCCCC(=O)NCC(=O)O [Hexanoylglycine] | – | – | 144.64 Å² | –
N[C@@H](CCCCN[C@@H](CCC(=O)O)C(=O)O)C(=O)O [L-Saccharopine] | 159.8 Å² | – | – | collision cross section (N2) ([M+2Na-3H]-): 163.17 Å²
O=C(O)C(=O)Cc1c[nH]c2ccccc12 [Indole-3-pyruvic acid] | – | – | 138.82 Å² | –
Nc1nc(=O)c2ncn([C@H]3C[C@H](O)[C@@H](COP(=O)(O)OP(=O)(O)OP(=O)(O)O)O3)c2[nH]1 [Deoxyguanosine triphosphate] | – | – | 189.26 Å² | –
CN(C)CCc1ccc(O)cc1 [Hordenine] | 137.8 Å² | – | 143.21 Å² | –
CC(=O)NC(CCC(N)=O)C(=O)O [alpha-N-Acetyl-L-glutamine] | – | 144.2 Å² | 136.83 Å² | –
Nc1ncnc2c1ncn2[C@@H]1O[C@H](CO)[C@@H](OP(=O)(O)O)[C@H]1O [Adenosine 3'-monophosphate] | – | – | 171.18 Å² | –
CC(C)=CCC/C(C)=C/CC/C(C)=C/CC/C=C(\C)CC/C=C(\C)CCC=C(C)C [Squalene] | 210.9 Å² | – | – | –
O=C(O)C#Cc1ccccc1 [Phenylpropiolic acid] | – | – | – | collision cross section (N2) ([M+H-H2O]+): 121.2 Å²
O=c1[nH]cc([C@@H]2O[C@H](CO)[C@@H](O)[C@H]2O)c(=O)[nH]1 [Pseudouridine] | – | 159 Å² | 145.23 Å² | –
Cc1ncc(C[n+]2csc(CCOP(=O)(O)O)c2C)c(N)n1 [Thiamine monophosphate] | 169.7 Å² | – | – | –
N[C@@H](CCS(=O)(=O)O)C(=O)O [L-homocysteic acid] | 140.3 Å² | – | – | collision cross section (N2) ([M+Na-2H]-): 132.56 Å²
NC(Cc1ccccc1O)C(=O)O (racemic) [DL-O-tyrosine] | 141.4 Å² | – | 134.25 Å² | –
CC(=O)N[C@@H](Cc1ccc(O)cc1)C(=O)O [N-Acetyl-L-tyrosine] | – | 154.5 Å² | 149.44 Å² | –

Further lines, with some results ahead:

collision cross section (N2) ([M+H]+) | collision cross section (N2) ([M+Na]+) | collision cross section (N2) ([M-H]-) | SMILES | other results
– | 141.6 Å² | – | N[C@@H](CCOP(=O)(O)O)C(=O)O [O-Phospho-L-homoserine] | –
– | – | 123.84 Å² | CC(CCC(=O)O)C(=O)O (stereo not drawn) [2-Methylglutaric acid] | –
– | 211.2 Å² | 205.82 Å² | C[C@H](CCC(=O)NCCS(=O)(=O)O)[C@H]1CC[C@H]2[C@@H]3[C@H](O)C[C@@H]4C[C@H](O)CC[C@]4(C)[C@H]3C[C@H](O)[C@]12C [Taurocholate] | –
127 Å² | – | 121.04 Å² | Nc1[nH]c(=O)nc2nc[nH]c12 [2-Hydroxyadenine] | –
– | – | 120.08 Å² | O=C(O)CCCC(=O)O [Glutaric acid] | –
– | – | 133.95 Å² | Cn1c(=O)[nH]c(=O)c2c1[nH]c(=O)n2C [3,7-Dimethyluric acid] | –
186.8 Å² | – | – | N[C@@H](CCCCNC(=O)CCCC[C@@H]1SC[C@@H]2NC(=O)N[C@@H]21)C(=O)O [Biocytin] | collision cross section (N2) ([M+Na-2H]-): 189.78 Å²
– | 210.1 Å² | – | O=C(O)[C@H]1O[C@H](OP(=O)(O)OP(=O)(O)OC[C@H]2O[C@@H](n3ccc(=O)[nH]c3=O)[C@H](O)[C@@H]2O)[C@H](O)[C@@H](O)[C@@H]1O [Uridine 5'-diphosphoglucuronic acid] | collision cross section (N2) ([M+Na-2H]-): 201.6 Å²
– | 145.5 Å² | 153.3 Å² | O=C(O)CNC(=O)CCc1ccccc1 [Phenylpropionylglycine] | –
– | 140.9 Å² | 128.12 Å² | CC(C)C(O)(CC(=O)O)C(=O)O (stereo not drawn) [2-Isopropylmalic acid] | –
– | 178.1 Å² | 163.78 Å² | CO[C@H]1[C@@H](O)[C@H](n2cnc3c(=O)nc(N)[nH]c32)O[C@@H]1CO [3'-O-methylguanosine] | –
– | – | 130.5 Å² and 130.92 Å² | O=C(O)[C@@H](O)[C@@H](O)[C@H](O)[C@@H](O)C(=O)O [D-Glucarate] | –
– | 161.9 Å² | 149.85 Å² | O=C(O)/C=C/CCCCCCCCC(=O)O [Traumatic Acid] | –
– | – | 133.2 Å² | O=C(O)CCCCCCC(=O)O [Suberic acid] | –
